Structures are written as SMILES.

By melting point is commonly meant the temperature of the solid-liquid transition. Consider `CC1=CC2Cc3[nH]c(=O)ccc3C3(C1)NCCCC23` (stereo unspecified), for which the melting point was in the range of 270 to 271 °C.

In the case of `C[C@]12C[C@H](c3ccc(OCCCCCS(=O)(=O)CCCC(F)(F)C(F)(F)F)cc3)[C@@H]3c4ccc(OC5CCCC5)cc4CC[C@H]3[C@@H]1CC[C@@H]2O`, the melting point is 166 °C.

For the compound `Cn1cc(OCC(F)(F)F)c(=O)c(-c2cccc(C(F)(F)F)c2)c1`, the melting point lay within 97 to 99 °C. The value for `COC(=O)c1cccc(C(=O)CC(=O)c2ccccc2)c1` was 106 to 108 °C; that for `COCc1cnc(N)nc1N` was 171 to 174 °C; that for `CC(C)N(CC(O)CC(c1ccccc1)c1ccccc1)C(C)C` (stereo unspecified) was 55 to 59 °C. The value for `Cc1ccc(S(=O)(=O)OCCOc2ccc(Nc3ncc(C#N)c(-c4ccccc4)n3)cc2)cc1` was 147 °C; that for `Cc1ccccc1C(=O)N(CN(C)C)c1ccc(C(=O)N2Cc3ccccc3Cc3ccccc32)cc1` was 131 to 133 °C; that for `C=CC(=O)NC1=CC(O)(C(C)=O)C(C(=O)O)C=C1` (stereo unspecified) was 171 °C. The same measure for `COC(=O)CNc1ccc(F)c(F)c1`: 71 to 73 °C. Compound `O=[N+]([O-])c1cccc(S(=O)(=O)C(CCl)Sc2ccccc2)c1` (stereo unspecified) yielded a melting point of 126 °C. The same measure for `COc1ccccc1OCCCc1oc(-n2ccnc2C)nc1-c1ccc(Cl)cc1`: 84 to 85 °C. The value for `COC(=O)NC(C)(C(=O)NS(=O)(=O)c1ccc(C)cc1)C(C)C` (stereo unspecified) was 120 to 122 °C; that for `CNC(=O)c1ccsc1Nc1nc(Nc2ccc3c(c2)CCN(CCOC)CC3)ncc1Cl` was 217 to 221 °C. The same measure for `Cc1c(-c2ccccc2)sc2c(Cl)c(Cl)c(O)cc12`: 146 to 147 °C; for `Nc1c(-c2ccc(-c3ccc(F)cc3)c(F)c2)nc2ccc(F)cc2c1C(=O)O`: 245 to 247 °C; for `NC(=S)c1ccc2c(c1)Nc1ccccc1S2`: 208 to 209 °C. For the compound `Cc1ccc(NC(=O)c2cc(Cl)cc(C)n2)nc1`, the melting point is 159 °C. In the case of `CNc1c(NCCSCc2ccc(CN(C)C)s2)c(=O)c1=O`, the melting point lay in the range of 185 to 187 °C. `O=C(CCNC(=O)c1ccccc1C(=O)O)NO` came in with a melting point of 58 to 65 °C. The same measure for `O=[N+]([O-])c1ccc(NCc2ccccc2)c([N+](=O)[O-])c1`: 106 °C; for `CSc1ccc(-c2nc3[nH]nc(N)c3c(=O)n2-c2ccc(C)cc2)cc1`: more than 285 °C. The value for `CCOc1cc(-c2cc(C(F)(F)F)nc(-c3ccnc(-c4cccc(S(N)(=O)=O)c4)c3)n2)ccc1C(F)(F)F` was 224 °C; that for `CC(CN1CCCC1)N1c2ccccc2Sc2ccc(C(=O)NCC3CCCC3)cc21` (racemic) was 124 °C. The value for `CCOCCS(=O)(=O)C(F)(F)C(O)(Cn1cncn1)c1ccc(F)cc1F` (stereo unspecified) was 89 to 91 °C; that for `COc1cc(CCCC2OC(=O)NC2=O)cc(OC)c1OCc1coc(/C=C/c2ccccc2)n1` (stereo unspecified) was 94 to 95 °C; that for `CCC12CCC3C4CCC(OC(C)=O)=CC4=CCC3C1CCC2OC(C)=O` (stereo unspecified) was 148 to 156 °C.

Turning to `O=C(CN1CCCC1)Nc1ccc2c(c1)C(=O)c1cc(NC(=O)CN3CCCC3)ccc1C2=O`, the melting point was 201 °C. Turning to `CCOC(=O)C(=O)Nc1c([N+](=O)[O-])ccc2c1CCCC2`, the melting point lay within 121 to 122 °C. On to `CNCC(=O)N1CC(c2ccc(Cl)cc2)Sc2ccccc21` (stereo unspecified), for which the melting point is 139 to 140 °C. The value for `N#Cc1c(F)cc2c(c1Cl)N1CCC[C@@H](NC(=O)C(F)(F)F)[C@@H]1c1ccc(F)cc1O2` was 174 to 175 °C; that for `CCOC(=O)C1=C(C)NC(C)=C(C(=O)OCCSC(C)=O)C1c1cccc([N+](=O)[O-])c1` (stereo unspecified) was 98 to 101 °C.

Turning to `CCCCN1CCn2c1nc(C(=O)NCc1ccc(F)cc1C(=O)NC)c(O)c2=O`, the melting point lay within 175 to 177 °C. The same measure for `CC1=CC(C)(C)OC(c2nsc3ccc(-n4c(=O)cc(C(F)(F)F)n(C)c4=O)cc23)C1` (stereo unspecified): 88 to 92 °C; for `Cc1nc2c3c(ccn2c1C)[C@@H](OCCS(C)=O)[C@H](O)[C@@H](c1ccccc1)N3` (stereo partly specified): 105 to 106 °C; for `CSc1c(O[C@H]2CC[C@H](NCc3ccccc3)CC2)ccc2[nH]ncc12`: 136 °C.

For the compound `CCOC(=O)c1cc2cc([N+](=O)[O-])cc(CC)c2o1`, the melting point was in the range of 114 to 116 °C. `NC(=O)N1CCN(CC(=O)N2CCOCC2)CC1` had a melting point of 165 °C. The same measure for `CN1CCC(N(C)c2ncc3ncnc(Nc4cccc([N+](=O)[O-])c4)c3n2)CC1`: 199 to 203 °C; for `CCCCn1c(=O)c2c(ncn2S(=O)(=O)c2c(C)cc(C)cc2C)n(CCCC)c1=O`: 125 to 127 °C. The value for `CCOC(=O)/C(CC(=O)O)=C(\c1ccc(Cl)cc1)c1ccc(S(C)(=O)=O)cc1` was 40 to 42 °C; that for `CCCCC1=CC(O)(C(Br)Br)N(Cc2ccccc2)C1=O` (stereo unspecified) was 92 to 93 °C; that for `COc1ccc(NC(=O)Nc2c(Cl)cncc2Cl)cc1OC1CCCC1` was 183 to 184 °C.

`CC(=O)ON=c1c2nccc3cccc(c32)n2cccc12` had a melting point of 177 to 179 °C. The same measure for `Nc1nc(Cl)cc(Oc2ccc3c(c2)CCCCN3C(=O)Nc2cccc(C(F)(F)F)c2)n1`: 175 °C; for `O=c1c(-c2cccc(C(F)(F)F)c2)coc2c(O)c(O)ccc12`: 225 °C. The same measure for `CCOC(=O)Cc1nc(-c2ccccc2)oc1-c1cccs1`: 82 to 83 °C; for `CCCCCCC(=O)N(CCCCn1ccnc1)C1=Nc2cccc3cccc1c23`: 82 to 84 °C. `COC(=O)[C@H]1C[C@H](C(=O)O)Nc2cccc(Cl)c21` (relative stereo): the melting point was 159 to 161 °C.

Consider `CN(C)C=CC(=O)C(c1ccccc1)c1ccccc1`, for which the melting point was 93 to 94 °C. Compound `Nc1ncnc2c1c(-c1cccnc1)nn2Cc1oc2ccccc2c(=O)c1-c1ccccc1` returned a melting point of 253 to 255 °C. `CCCc1cc(F)c2occ(C)c2c1O` returned a melting point of 53 to 54 °C. For `CCOC(=O)C(C(=O)OCC)N(Cc1ccccc1)Cc1ccc(OC)cc1OC`, the melting point lay within 62 to 63 °C.

`CS(=O)(=O)c1ccc(-c2cnn(Cc3cc4ccccc4s3)c(=O)c2-c2ccc(F)cc2)cc1`: the melting point was in the range of 93 to 96 °C. The same measure for `CCOC(=O)c1ccc(-c2[nH]nc3c2C(=O)c2c(NC(=O)NN4CCC[C@@H]4COC)cccc2-3)s1`: 221 to 222 °C; for `Cn1cc(C2=C(c3cn(CCCBr)c4ccccc34)C(=O)OC2=O)c2ccccc21`: 168 to 170 °C; for `COc1cc(OC)c(C(O)C(Cl)(Cl)Cl)cc1OC` (stereo unspecified): 162 to 164 °C. `COC(=O)C(C)(C)S(=O)(=O)N1CCC(c2ccc(Br)c(C)c2)CC1`: the melting point fell in the range of 103 to 106 °C.

The compound `OCc1ccc2c(c1)C=C(n1ccnc1)CC2` returned a melting point of 88 to 91 °C. `O=Cc1ccc(O)cn1`: the melting point was in the range of 134 to 135 °C. For `CCCCCCCNC(=O)Nc1ccc(N(C)C)cc1C(=O)N(CC1CCN(C(c2ccccc2)c2ccccc2)CC1)N(C)C`, the melting point fell in the range of 178 to 179 °C.

Source of the values: a melting point compilation (Tetko et al.; mined from patent text by program, amines drawn as free bases though some values may be those of a salt).
